Positions count from the first letter of the chain named.
Columns and labels:
[1] = target: T1, human corticosteroid binding globulin (CBG) variant glycosylated solely at position 74 (Homo sapiens, UniProt P08185, N176Q/N260Q/N31Q/N330Q/N369Q); assay: Steroid binding of CBG variant with [3H]-cortisol; conditions: CHO culture media
T1 construct: made in house; host or cells: CHO cells (CHO pro), measured in culture medium
T1 sequence (P08185 23-405 N31Q/N176Q/N260Q/N330Q/N369Q): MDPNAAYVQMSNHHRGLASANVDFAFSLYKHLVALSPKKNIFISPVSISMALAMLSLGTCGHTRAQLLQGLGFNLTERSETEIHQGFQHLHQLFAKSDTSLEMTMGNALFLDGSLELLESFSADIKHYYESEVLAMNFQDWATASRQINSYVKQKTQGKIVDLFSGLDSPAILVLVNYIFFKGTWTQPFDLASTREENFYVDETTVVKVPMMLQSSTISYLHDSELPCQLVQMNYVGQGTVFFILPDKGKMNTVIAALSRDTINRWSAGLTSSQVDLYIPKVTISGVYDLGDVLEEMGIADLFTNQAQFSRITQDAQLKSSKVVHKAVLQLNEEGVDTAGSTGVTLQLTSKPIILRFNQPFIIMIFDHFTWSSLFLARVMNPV
Procedure: Chim. Acta, 1983, 132:101. Initially, samples of culture media were added to tubes of PBS containing [^3 H]-cortisol. The mixture in the tubes was vortex mixed and incubated at room temperature for 1 h followed by a further incubation in an ice-water for 15 min. Dextran-coated charcoal (DCC) suspension at 0° C. […] The tubes were incubated for […] 0° C. […] The binding capacity of the CBG variants was calculated in nmol/L after correction for dilution and the dissociation of bound complexes during the DCC treatment (12% for CBG). The affinity of the CBG variants for cortisol was measured using the Scatchard analysis. Prior to conducting the affinity measurement, the culture media was concentrated using *Centricon microconcentrators (Amicon).

[2] = target: T2, human corticosteroid binding globulin (CBG) variant Asn238 to Gln (glycosylation site 238 disrupted) (Homo sapiens, UniProt P08185, N260Q); assay: Steroid binding capacity by saturation analysis with [3H]-cortisol, dextran-coated charcoal; conditions: CHO culture media
T2 construct: made in house; host or cells: CHO cells (CHO pro), measured in culture medium
T2 sequence (P08185 23-405 N260Q): T1 sequence (P08185 23-405 N31Q/N176Q/N260Q/N330Q/N369Q) with Q9N, Q154N, Q308N, Q347N
Procedure: (§1) The steroid binding capacity of the CBG variants in the culture media was measured by saturation analysis using as a labelled ligand [^3 H]-cortisol (55.8 Ci/mmol) obtained from DuPont, and dextran-coated charcoal as a separation agent as described by Hammond et al. in Clin. Chim. Acta, 1983, 132:101.
(§2) Initially, samples of culture media were added to tubes of PBS containing [^3 H]-cortisol. The mixture in the tubes was vortex mixed and incubated at room temperature for 1 h followed by a further incubation in an ice-water for 15 min. Dextran-coated charcoal (DCC) suspension at 0° C. (1.25 g Norit "A"(Amend Drug and Chemical Co.) and 0.125 g Dextran T-70 (AB Pharmacia) in 0.01 mol/l phosphate-buffered saline containing 0.1% gelatin, pH7) was added to the tubes to bind excess labelled cortisol. The tubes were incubated for […] 0° C. After centrifugation at 3000 X g for 5 min at 4° C. to sediment the DCC, the supernatants were decanted into scintillation counting vials containing 4 ml Aqueous Counting Scintillant (Amersham), which were capped, shaken and counted for 10 min or until 10,000 cpm had accumulated. The binding capacity of the CBG variants was calculated in nmol/L after correction for dilution and the dissociation of bound complexes during the DCC treatment (12% for CBG).

[3] = target: T3, human corticosteroid binding globulin (CBG) variant Thr240 to Ala (glycosylation site 238 disrupted) (Homo sapiens, UniProt P08185, T262A); assay: as above; conditions: CHO culture media
T3 construct: in order to isolate a full-length CBG cDNA; made in house; host or cells: CHO cells (CHO pro), measured in culture medium
T3 sequence (P08185 23-405 T262A): T1 sequence (P08185 23-405 N31Q/N176Q/N260Q/N330Q/N369Q) with Q9N, Q154N, Q238N, T240A, Q308N, Q347N
Procedure: as §1, §2

[4] = target: T4, human corticosteroid binding globulin (CBG), native (Homo sapiens, UniProt P08185); conditions: 4° C., physiological pH; read-out: binding affinity of the natural cortisol ligand for CBG; cited from earlier work
T4 sequence (P08185 23-405): T1 sequence (P08185 23-405 N31Q/N176Q/N260Q/N330Q/N369Q) with Q9N, Q154N, Q238N, Q308N, Q347N

[5] = target: T5, human corticosteroid binding globulin (CBG) variant glycosylated at positions 74 and 238 (Homo sapiens, UniProt P08185, N176Q/N31Q/N330Q/N369Q); assay: Affinity for cortisol by Scatchard analysis, [3H]-cortisol with increasing unlabelled cortisol; conditions: concentrated CHO culture media
T5 construct: in order to isolate a full-length CBG cDNA; made in house; host or cells: CHO cells (CHO pro), measured in culture medium
T5 sequence (P08185 23-405 N31Q/N176Q/N330Q/N369Q): T1 sequence (P08185 23-405 N31Q/N176Q/N260Q/N330Q/N369Q) with Q238N
Procedure: as §1, §2
(§3) The affinity of the CBG variants for cortisol was measured using the Scatchard analysis.

[6] = target: T6, human corticosteroid binding globulin (CBG) variant glycosylated solely at position 238 (sites 9, 74, 154, 308, 347 disrupted, Asn to Gln) (Homo sapiens, UniProt P08185, N176Q/N31Q/N330Q/N369Q/N96Q); assay: as above; conditions: concentrated CHO culture media, read-out: K8 (affinity for cortisol) (converted)
T6 construct: made in house; host or cells: CHO cells (CHO pro), measured in culture medium
T6 sequence (P08185 23-405 N31Q/N96Q/N176Q/N330Q/N369Q): T1 sequence (P08185 23-405 N31Q/N176Q/N260Q/N330Q/N369Q) with N74Q, Q238N
Procedure: as §1, §2, §3

SMILES: C[C@]12CCC(=O)C=C1CC[C@@H]1[C@@H]2[C@@H](O)C[C@@]2(C)[C@H]1CC[C@]2(O)C(=O)CO [cortisol]
- steroid-binding activity [1]: no steroid-binding activity
- steroid-binding activity [2]: complete loss of steroid-binding activity
- steroid-binding activity [3]: complete loss of steroid-binding activity
- Kd [4]: ~0.7 nM
- K4 (steroid-binding affinity) [5]: 1.9e+08 M⁻¹
- Kd [6]: 9.09 nM
